{"source": "patent US20090088380A1", "about": "“GHRH ANALOGS AND THERAPEUTIC USES THEREOF” (priority 2007, published 2009)", "tested_on": "malnourished subjects with CKD", "assay": "Phase II CKD: anthropometry", "type": "in vivo, human", "details": "ITT", "protocol": "Height (cm) was measured only at the screening visit. Anthrompometry was measured at every visit from baseline to follow-up. Anthropometric measurements included weight, skinfold thicknesses and arm circumference. Weight (kg) was measured using a high performance scale. Subjects were asked to stand on the scale with minimal clothing, no shoes, and with even weight on both feet. Skinfold thickness (mm) was measured by using Harpenden Skinfold Callipers at 4 sites: biceps, triceps, suprailiacal and subscapular. Arm circumference (cm) was measured using a tape measure that is flexible, inelastic and metric. The site measured was marked, and the tape was not to be too tight or too loose, and to lie flat on the skin, and be horizontal. Bioimpedance measurements were made to measure body composition at every visit from baseline to Day 28. The bioimpedance scale (RJL Systems) was used. Resistance, reactance and the phase angle were recorded.", "note": "Non-standard residues stand in square brackets, D forms with d. Residues, ends and D or L forms follow the SMILES beside them.", "data": [{"smiles": "CC[C@H](C)[C@H](NC(=O)[C@H](C)NC(=O)[C@H](CC(=O)O)NC(=O)[C@@H](C)NC(=O)[C@@H](N)Cc1ccc(O)cc1)C(=O)N[C@@H](Cc1ccccc1)C(=O)N[C@H](C(=O)N[C@@H](CC(N)=O)C(=O)N[C@@H](CO)C(=O)N[C@H](Cc1ccc(O)cc1)C(=O)N[C@@H](CCCNC(=N)N)C(=O)N[C@@H](CCCCN)C(=O)N[C@H](C(=O)N[C@@H](CC(C)C)C(=O)N[C@H](C)C(=O)N[C@@H](CCC(N)=O)C(=O)N[C@@H](CC(C)C)C(=O)N[C@@H](CO)C(=O)N[C@@H](C)C(=O)N[C@@H](CCCNC(=N)N)C(=O)N[C@@H](CCCCN)C(=O)N[C@@H](CCCCN)C(=O)N[C@@H](CC(C)C)C(=O)N[C@@H](CCC(N)=O)C(=O)N[C@@H](CC(=O)O)C(=O)N[C@H](C(=O)N[C@@H](CCSC)C(=O)N[C@@H](CO)C(=O)N[C@@H](CCCNC(=N)N)C(N)=O)[C@@H](C)CC)C(C)C)[C@@H](C)O", "note": "[GHRH analog #5, [D-Ala^2, D-Tyr^10, D-Ala^15, Lys^22] hGHRH(1-29)-NH2] (H-Y[dA]DAIFTNS[dY]RKVL[dA]QLSARKKLQDIMSR-NH2)", "values": [{"measurement": "Arm circumference: mean (SD)", "setting": "Baseline", "result": "26.35 (5.42) cm"}, {"measurement": "Body weight: mean (SD)", "setting": "Baseline", "result": "62.84 (9.98) kg"}, {"measurement": "Skinfold thickness biceps: median", "setting": "Baseline", "result": 5.1, "unit": "mm"}, {"measurement": "Skinfold thickness subscapular: median", "setting": "Baseline", "result": 8.0, "unit": "mm"}, {"measurement": "Skinfold thickness suprailiacal: median", "setting": "Baseline", "result": 7.0, "unit": "mm"}, {"measurement": "Skinfold thickness triceps: median", "setting": "Baseline", "result": 12.0, "unit": "mm"}, {"measurement": "Arm circumference: mean (SD)", "setting": "Day 28", "result": "27.33 (4.81) cm"}, {"measurement": "Body weight: mean (SD)", "setting": "Day 28", "result": "63.21 (10.45) kg"}, {"measurement": "Skinfold thickness biceps: median", "setting": "Day 28", "result": 4.1, "unit": "mm"}, {"measurement": "Skinfold thickness subscapular: median", "setting": "Day 28", "result": 8.6, "unit": "mm"}, {"measurement": "Skinfold thickness suprailiacal: median", "setting": "Day 28", "result": 7.3, "unit": "mm"}, {"measurement": "Skinfold thickness triceps: median", "setting": "Day 28", "result": 13.3, "unit": "mm"}, {"measurement": "Arm circumference: adjusted difference", "setting": "vs placebo", "result": 0.33, "unit": "cm"}, {"measurement": "Body weight: adjusted difference", "setting": "vs placebo", "result": 0.96, "unit": "kg"}, {"measurement": "Skinfold thickness triceps: ratio", "setting": "vs placebo", "result": 1.066}, {"measurement": "Fat free mass (kg): mean (SD)", "setting": "anthropometry, Baseline", "result": "46.64 (9.13) kg"}, {"measurement": "Fat mass (%): median", "setting": "anthropometry, Baseline", "result": 25.4, "unit": "%"}, {"measurement": "Fat mass (kg): median", "setting": "anthropometry, Baseline", "result": 15.8, "unit": "kg"}, {"measurement": "Fat free mass (kg): mean (SD)", "setting": "anthropometry, Baseline, listed as GHRH(1-29)NH2 synthetic analog", "result": 46.64, "unit": "kg"}, {"measurement": "Fat free mass (kg): mean (SD)", "setting": "anthropometry, Day 28", "result": "46.20 (9.16) kg"}, {"measurement": "Fat mass (%): median", "setting": "anthropometry, Day 28", "result": 25.9, "unit": "%"}, {"measurement": "Fat mass (kg): median", "setting": "anthropometry, Day 28", "result": 15.6, "unit": "kg"}, {"measurement": "Fat free mass (kg): mean (SD)", "setting": "anthropometry, Day 28, listed as GHRH(1-29)NH2 synthetic analog", "result": 46.20, "unit": "kg"}, {"measurement": "Fat free mass (kg): adjusted difference", "setting": "anthropometry, vs placebo", "result": 0.41, "unit": "kg"}]}]}
